The values below come from ChEMBL document CHEMBL4417631, “Oral peptide inhibitors of interleukin-23 receptor and their use to treat inflammatory bowel diseases” (2017).

Where a SMILES comes first, the peptide text is derived from it.

For the assay, the target named is T1, Interleukin-23 receptor (Homo sapiens, UniProt Q5VWK5).
T1 sequence (Q5VWK5 whole entry): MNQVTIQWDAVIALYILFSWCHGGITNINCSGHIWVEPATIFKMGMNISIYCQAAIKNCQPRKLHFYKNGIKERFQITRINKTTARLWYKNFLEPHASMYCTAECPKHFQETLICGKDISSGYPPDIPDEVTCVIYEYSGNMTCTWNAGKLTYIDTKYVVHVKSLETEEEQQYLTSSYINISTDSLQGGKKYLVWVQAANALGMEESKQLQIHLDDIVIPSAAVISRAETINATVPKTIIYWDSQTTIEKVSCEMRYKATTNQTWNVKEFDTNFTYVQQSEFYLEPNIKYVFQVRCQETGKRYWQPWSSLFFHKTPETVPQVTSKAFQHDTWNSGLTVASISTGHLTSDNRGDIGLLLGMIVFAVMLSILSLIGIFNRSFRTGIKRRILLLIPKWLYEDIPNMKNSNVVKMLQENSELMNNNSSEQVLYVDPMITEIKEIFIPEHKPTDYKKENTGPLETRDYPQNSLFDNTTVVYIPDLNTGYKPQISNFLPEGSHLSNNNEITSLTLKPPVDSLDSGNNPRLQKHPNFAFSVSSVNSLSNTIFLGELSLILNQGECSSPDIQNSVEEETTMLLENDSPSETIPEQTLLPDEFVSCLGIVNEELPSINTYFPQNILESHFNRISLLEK
As to the kind of experiment: Inhibition of interleukin-23 binding to human interleukin-23 receptor incubated for 2 hrs by competitive binding ELISA.
A word on the IC50: it is the concentration that gives 50% inhibition. The compound `CC(=O)N[C@@H](CS)C(=O)N[C@@H](CCC(N)=O)C(=O)N[C@H](C(=O)N[C@@H](Cc1c[nH]c2ccccc12)C(=O)N[C@@H](CCC(N)=O)C(=O)N[C@@H](CS)C(=O)N[C@@H](Cc1ccc(O)cc1)C(=O)N[C@@H](Cc1c[nH]c2ccccc12)C(=O)N[C@@H](CCCNC(=N)N)C(=O)N[C@@H](CCC(=O)O)C(=O)N[C@@H](CC(N)=O)C(=O)NCC(=O)NCCOCC(=O)N[C@H](CCCNC(=N)N)C(N)=O)[C@@H](C)O` gave an IC50 of less than 500 nM.
The compound `CC(=O)N[C@@H](CCC(N)=O)C(=O)N[C@H](C(=O)N[C@@H](Cc1c[nH]c2ccccc12)C(=O)N[C@@H](CCC(N)=O)C(=O)N[C@@H](CS)C(=O)N[C@@H](Cc1ccc(O)cc1)C(=O)N[C@@H](Cc1c[nH]c2ccccc12)C(=O)N(C)[C@@H](CC(C)C)C(=O)N[C@@H](CCC(=O)O)C(=O)N[C@@H](CC(N)=O)C(=O)NCC(N)=O)[C@@H](C)O` gave an IC50 greater than 6000 nM.
Next, `CC(=O)N[C@@H](CS)C(=O)N[C@@H](C)C(=O)N[C@@H](CC(=O)O)C(=O)N[C@@H](Cc1c[nH]c2ccccc12)C(=O)N[C@H](C(=O)N[C@@H](CS)C(=O)N[C@@H](Cc1ccc(O)cc1)C(=O)N[C@@H](Cc1c[nH]c2ccccc12)C(=O)N[C@@H](Cc1cnc[nH]1)C(=O)N[C@@H](CCC(=O)O)C(=O)N[C@@H](Cc1cnc[nH]1)C(=O)N[C@@H](CO)C(=O)N[C@@H](CCC(=O)O)C(=O)N[C@@H](CCCNC(=N)N)C(=O)N[C@H](C(=O)NCC(N)=O)C(C)C)C(C)C` (Ac-CADWVCYWHEHSERVG-NH2): 500 to 1000 nM.
Next, `CC(=O)N[C@@H](CS)C(=O)N[C@@H](CCC(N)=O)C(=O)N[C@H](C(=O)N[C@@H](Cc1c[nH]c2ccccc12)C(=O)N[C@@H](CCC(N)=O)C(=O)N[C@@H](CS)C(=O)N[C@@H](Cc1ccc(O)cc1)C(=O)N[C@@H](Cc1c[nH]c2ccccc12)C(=O)N[C@@H](CCCNC(=N)N)C(=O)N(C)[C@@H](CCCCN)C(=O)N[C@@H](CC(N)=O)C(=O)NCC(=O)NCCOCC(=O)N[C@H](CCCCN)C(N)=O)[C@@H](C)O`: greater than 1000 nM.
Next, `CC(=O)N[C@@H](CS)C(=O)N[C@@H](C)C(=O)N[C@@H](CC(=O)O)C(=O)N[C@@H](Cc1c[nH]c2ccccc12)C(=O)N[C@H](C(=O)N[C@@H](CS)C(=O)N[C@@H](Cc1ccc(O)cc1)C(=O)N[C@@H](Cc1c[nH]c2ccccc12)C(=O)N[C@@H](Cc1cnc[nH]1)C(=O)N[C@@H](CCCCN)C(=O)N[C@@H](Cc1ccccc1)C(=O)NCC(=O)O)C(C)C`: greater than 1000 nM; `CC(=O)N[C@@H](CS)C(=O)N[C@@H](C)C(=O)N[C@H](C(=O)N[C@@H](Cc1c[nH]c2ccccc12)C(=O)N[C@H](C(=O)N[C@@H](CS)C(=O)N[C@@H](Cc1ccc(O)cc1)C(=O)N[C@@H](Cc1c[nH]c2ccccc12)C(=O)N[C@@H](Cc1cnc[nH]1)C(=O)N[C@H](C(=O)N[C@@H](Cc1ccccc1)C(=O)NCC(N)=O)[C@@H](C)O)C(C)C)[C@@H](C)O`: greater than 1000 nM; `CC(=O)NCCCC[C@H](NC(=O)[C@](C)(CCCCN)NC(=O)[C@H](Cc1ccc2ccccc2c1)NC(=O)[C@H](Cc1cc(F)cc(F)c1)NC(=O)[C@@H](NC(=O)[C@H](CCC(N)=O)NC(=O)[C@H](Cc1c[nH]c2ccccc12)NC(=O)[C@@H](NC(=O)[C@H](CCC(N)=O)NC(=O)[C@@H](NC(C)=O)C(C)(C)S)[C@@H](C)O)C(C)(C)S)C(=O)N[C@@H](CC(N)=O)C(=O)NCC(N)=O`: 100 to 1000 nM.
Consider `CC(=O)N[C@H](C(=O)N[C@@H](CCC(N)=O)C(=O)N[C@@H](Cc1ccccc1)C(=O)N[C@@H](CC(=O)O)C(=O)N[C@@H](CS)C(=O)N[C@@H](CCCNC(=N)N)C(=O)N[C@H](C(=O)N[C@@H](Cc1c[nH]c2ccccc12)C(=O)N[C@@H](CCC(=O)O)C(=O)N[C@@H](CS)C(=O)N[C@@H](Cc1ccc(O)cc1)C(=O)N[C@@H](Cc1c[nH]c2ccccc12)C(=O)N[C@@H](Cc1cnc[nH]1)C(=O)N[C@H](C(=O)N[C@@H](Cc1ccccc1)C(=O)NCC(N)=O)[C@@H](C)O)[C@@H](C)O)[C@@H](C)O`, for which the IC50 fell in the range of 500 to 1000 nM.
Next, `CC(=O)N[C@@H](CS)C(=O)N[C@@H](CCC(N)=O)C(=O)N[C@H](C(=O)N[C@@H](Cc1c[nH]c2ccccc12)C(=O)N[C@@H](CCC(N)=O)C(=O)N[C@@H](CS)C(=O)N[C@@H](Cc1ccc(O)cc1)C(=O)N[C@@H](Cc1c[nH]c2ccccc12)C(=O)N[C@@H](CCCNC(=N)N)C(=O)N[C@@H](CN)C(=O)N[C@@H](CC(N)=O)C(=O)NCC(=O)NCCOCC(=O)N[C@H](CCCCN)C(N)=O)[C@@H](C)O`: less than 500 nM.
In the case of `CC(C)[C@H](NC(=O)[C@H](Cc1c[nH]c2ccccc12)NC(=O)[C@H](CC(=O)O)NC(=O)[C@H](C)NC(=O)[C@H](CS)NC(=O)[C@H](CO)NC(=O)CCN)C(=O)N[C@@H](CS)C(=O)N[C@@H](Cc1ccc(O)cc1)C(=O)N[C@@H](Cc1c[nH]c2ccccc12)C(=O)N[C@@H](Cc1cnc[nH]1)C(=O)N[C@H](C(=O)N[C@@H](Cc1ccccc1)C(=O)NCC(=O)O)[C@@H](C)O`, the IC50 is greater than 1000 nM.
Compound `CC(=O)N[C@@H](CS)C(=O)N[C@@H](CCCNC(=N)N)C(=O)N[C@H](C(=O)N[C@@H](Cc1c[nH]c2ccccc12)C(=O)N[C@@H](CCC(N)=O)C(=O)N[C@@H](CS)C(N)=O)[C@@H](C)O` (Ac-CRTWQC-NH2) had an IC50 greater than 30000 nM.
Next, `CC[C@H](C)[C@H](NC(=O)[C@H](Cc1cnc[nH]1)NC(=O)[C@H](Cc1c[nH]c2ccccc12)NC(=O)[C@H](Cc1ccc(O)cc1)NC(=O)[C@H](CS)NC(=O)[C@H](CCC(=O)O)NC(=O)[C@H](Cc1c[nH]c2ccccc12)NC(=O)[C@H](CC(=O)O)NC(=O)[C@H](CO)NC(=O)[C@@H](N)CS)C(=O)N[C@@H](Cc1ccccc1)C(=O)NCC(N)=O` (H-CSDWECYWHIFG-NH2): greater than 1000 nM; `CC(=O)N[C@@H](CS)C(=O)N[C@@H](C)C(=O)N[C@@H](CC(=O)O)C(=O)N[C@@H](Cc1c[nH]c2ccccc12)C(=O)N[C@H](C(=O)N[C@@H](CS)C(N)=O)C(C)C` (Ac-CADWVC-NH2): greater than 1000 nM.
Next, `COc1ccc(C[C@H](NC(=O)[C@@H](NC(=O)[C@H](CCC(N)=O)NC(=O)[C@H](Cc2c[nH]c3ccccc23)NC(=O)[C@@H](NC(=O)[C@H](CCC(N)=O)NC(=O)[C@@H](NC(=O)c2cc(O)c(O)c(O)c2)C(C)(C)S)[C@@H](C)O)C(C)(C)S)C(=O)N[C@@H](Cc2ccc3ccccc3c2)C(=O)N[C@@](C)(CCCCN)C(=O)N[C@@H](CCCCNC(C)=O)C(=O)N[C@@H](CC(N)=O)C(=O)NCC(N)=O)cc1`: 1000 to 10000 nM.
`CC(C)[C@H](NC(=O)[C@H](Cc1c[nH]c2ccccc12)NC(=O)[C@H](CC(=O)O)NC(=O)[C@H](C)NC(=O)[C@@H](N)CS)C(=O)N[C@@H](CS)C(=O)N[C@@H](Cc1ccc(O)cc1)C(=O)N[C@@H](Cc1c[nH]c2ccccc12)C(N)=O` returned an IC50 greater than 1000 nM.
`CC(=O)N[C@@H](CC(=O)O)C(=O)N[C@H](C(=O)N1CCC[C@H]1C(=O)N[C@@H](CCCNC(=N)N)C(=O)N[C@@H](CS)C(=O)N[C@@H](CCCNC(=N)N)C(=O)N[C@H](C(=O)N[C@@H](Cc1c[nH]c2ccccc12)C(=O)N[C@@H](CCC(=O)O)C(=O)N[C@@H](CS)C(=O)N[C@@H](Cc1ccc(O)cc1)C(=O)N[C@@H](Cc1c[nH]c2ccccc12)C(=O)N[C@@H](Cc1cnc[nH]1)C(=O)N[C@H](C(=O)N[C@@H](Cc1ccccc1)C(=O)NCC(N)=O)[C@@H](C)O)[C@@H](C)O)[C@@H](C)O` yielded an IC50 of 500 to 1000 nM.
Next, `CC(=O)NC1CC/C=C\CCCC(C(=O)N[C@@H](Cc2ccc(O)cc2)C(=O)N[C@@H](Cc2c[nH]c3ccccc23)C(=O)N[C@@H](CCCNC(=N)N)C(=O)N[C@@H](CCCCN)C(=O)N[C@@H](Cc2ccccc2)C(=O)NCC(=O)NCCOCC(=O)N[C@H](CCCCN)C(N)=O)NC(=O)[C@H](CCC(N)=O)NC(=O)[C@H](Cc2c[nH]c3ccccc23)NC(=O)[C@H]([C@@H](C)O)NC(=O)[C@H](CCCNC(=N)N)NC1=O` (stereo not given in full): 1000 to 10000 nM; `CC(=O)N[C@@H](CS)C(=O)N[C@@H](C)C(=O)N[C@@H](CC(=O)O)C(=O)N[C@@H](Cc1c[nH]c2ccccc12)C(=O)N[C@H](C(=O)N[C@@H](CS)C(=O)N[C@@H](Cc1ccc(O)cc1)C(=O)N[C@@H](Cc1c[nH]c2ccccc12)C(=O)N[C@@H](Cc1cnc[nH]1)C(=O)N[C@H](C(=O)N[C@@H](Cc1ccccc1)C(=O)NCC(N)=O)[C@@H](C)O)C(C)C`: greater than 1000 nM.
In turn, `CC(=O)N[C@@H](CS)C(=O)N[C@@H](C)C(=O)N[C@@H](CC(=O)O)C(=O)N[C@@H](Cc1c[nH]c2ccccc12)C(=O)N[C@H](C(=O)N[C@@H](CS)C(=O)N[C@@H](Cc1ccc(O)cc1)C(=O)N[C@@H](Cc1c[nH]c2ccccc12)C(=O)N[C@@H](Cc1cnc[nH]1)C(=O)N[C@H](C(=O)N[C@@H](Cc1ccccc1)C(=O)NCC(=O)N[C@@H](CCC(=O)O)C(=O)N[C@@H](CCCNC(=N)N)C(N)=O)[C@@H](C)O)C(C)C` showed an IC50 of less than 500 nM.
In the case of `CC(=O)N[C@@H](CS)C(=O)N[C@@H](C)C(=O)N[C@@H](CC(=O)O)C(=O)N[C@@H](Cc1c[nH]c2ccccc12)C(=O)N[C@H](C(=O)N[C@@H](CS)C(=O)N[C@@H](Cc1ccc(O)cc1)C(=O)N[C@@H](Cc1ccc(C(F)(F)F)cc1)C(=O)N[C@@H](CCCN)C(=O)N[C@@H](CN)C(=O)N[C@@H](Cc1ccccc1)C(=O)NCC(=O)NCCOCC(=O)N[C@H](CCCCN)C(N)=O)C(C)C`, the IC50 is greater than 1000 nM.
